Data as given in patent publication US11518750B2, “3-methylideneoxan-4-one compounds and substituted derivatives thereof as inhibitors of telomerase” (NORTHWESTERN UNIVERSITY, priority 2019, dated 2022).

Molecular target: T1, CYP1A2 (Homo sapiens, UniProt P05177)
T1 construct: purchased Thermo Fisher
T1 sequence (P05177 1-516): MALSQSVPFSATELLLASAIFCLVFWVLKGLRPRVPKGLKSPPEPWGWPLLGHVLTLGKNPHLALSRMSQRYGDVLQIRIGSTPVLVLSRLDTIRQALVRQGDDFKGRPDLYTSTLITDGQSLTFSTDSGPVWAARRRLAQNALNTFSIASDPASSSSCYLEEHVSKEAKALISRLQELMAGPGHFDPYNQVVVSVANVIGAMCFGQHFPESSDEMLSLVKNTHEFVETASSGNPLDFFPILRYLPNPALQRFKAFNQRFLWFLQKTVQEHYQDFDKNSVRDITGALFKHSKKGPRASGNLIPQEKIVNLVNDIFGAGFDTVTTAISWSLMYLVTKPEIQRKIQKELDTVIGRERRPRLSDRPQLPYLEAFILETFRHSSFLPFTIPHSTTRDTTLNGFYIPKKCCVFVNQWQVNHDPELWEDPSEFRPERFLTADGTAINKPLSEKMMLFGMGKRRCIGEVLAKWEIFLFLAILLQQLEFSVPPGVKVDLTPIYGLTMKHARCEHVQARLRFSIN
Experiment: CYP450 inhibition assay
Assay type: in vitro ADME
Settings: in words
Procedure: CYP450 Inhibition Assay. Assay was conducted using the commercially available Vivid CYP1A2 Screening Kit (Thermo Fisher) according to the manufacturer's protocol. α-napthoflavone and DMSO were used as a positive and negative control respectively based on the manufacturer's protocol.

C=C1C(=O)[C@](C)(C(=O)OC)[C@H](CCc2cn(Cc3ccc(F)cc3F)nn2)O[C@@H]1C [NU-1, methyl (2S,3R,6R)-2-(2-(1-(2,4-difluorobenzyl)-1H-1,2,3-triazol-4-yl)ethyl)-3,6-dimethyl-5 methylene-4-oxotetrahydro-2H-pyran-3-carboxylate]
CYP450 inhibition profile: favorable
